Laboratory results taken from PMC11651181, “Discovery of 6α-Thiazolylcarboxamidonaltrexamine Derivative (NTZ) as a Potent and Central Nervous System Penetrant Opioid Receptor Modulator with Drug-like Properties for Potential Treatment of Opioid Use Disorder” (ACS Pharmacology & Translational Science, 2024).
“Also recorded” adds a separate entry of the source. Counter-ions that a name gives are not always drawn.

Legend:
μ opioid receptor (MOR) = molecular target: T1, μ opioid receptor (MOR) (Mus musculus, UniProt P42866); assay: Competitive radioligand binding assay, MOR
T1 construct: expressed in transfected cells; host or cells: CHO (mMOR-CHO), membrane preparation
Description: (§1) The competition binding assay was performed using monoclonal mouse opioid receptors expressed in CHO cell lines (monoclonal human δ opioid receptor was used for the DOR assay).
(§2) The bound radioligand was separated using a Brandel harvester. Specific binding to the MOR, KOR, and DOR was calculated by subtracting the binding observed in the presence of 5 μM naltrexone, U50488, and SNC80, respectively, from the binding in their absence. Relative affinity values (IC50) were determined by fitting displacement binding inhibition data to a nonlinear regression model using GraphPad Prism 8.0 (GraphPad Software, San Diego, CA). The % inhibition was calculated using the formula: % inhibition = 100% - [(binding with the tested compound - nonspecific binding)/specific binding] × 100%. The IC50 values were converted to Ki values using the Cheng-Prusoff equation: Ki = IC50/ [1 + ([L*]/KD)], where [L*] is the concentration of the radioligand and KD is the KD of the radioligand.[68]

δ opioid receptor (DOR) = molecular target: T2, δ opioid receptor (DOR) (Homo sapiens, UniProt P41143); assay: Competitive radioligand binding assay, DOR
T2 construct: expressed in transfected cells; host or cells: CHO (hDOR-CHO), membrane preparation
Description: as §1, §2

κ opioid receptor (KOR) = molecular target: T3, κ opioid receptor (KOR) (Mus musculus, UniProt P33534); assay: Competitive radioligand binding assay, KOR
T3 construct: expressed in transfected cells; host or cells: CHO (mKOR-CHO), membrane preparation
Description: as §1, §2

KOR = molecular target: T4, KOR (Mus musculus, UniProt P33534); assay: KOR [35S]GTPγS functional assay; format: biochemical
T4 construct: expressed in transfected cells; host or cells: CHO (KOR-CHO), membrane preparation
Description: The [^35S]GTPγS functional assay was used to assess the efficacy of compounds at the MOR, KOR, and DOR. In this assay, 10 μg of MOR-CHO/KOR-CHO/DOR-CHO membrane protein was incubated in 500 μL of TME with 100 mM NaCl, 20 μM GDP, 0.1 nM [^35S]GTPγS, and varying concentrations of the compound for 1.5 h in a 30 °C water bath. Protein concentration was adjusted using the Bradford protein assay. […] After incubation, bound radioactivity was separated by filtration through GF/B glass fiber filters and measured by liquid scintillation counting. All assays were performed in duplicate and repeated at least three times. Net stimulated [35S]GTPγS binding was calculated as agonist-stimulated minus basal binding.

MOR = molecular target: T5, MOR (Mus musculus, UniProt P42866); assay: MOR calcium flux assay in Gαqi5-transfected mMOR-CHO cells; format: cell-based
T5 construct: expressed in transfected cells; host or cells: CHO (MOR-CHO), membrane preparation

[1] = Caco-2 permeability studies; format: in vitro ADME; conditions: human, 1 h incubation
Description: Caco-2 cells (HTB-37) were cultured in T75 flasks using DMEM supplemented with 10% FBS, 1% glutamine, penicillin, and streptomycin at 37 °C and 5% CO2. Cells were passaged at 80–90% confluency and seeded into Millipore 96-well plates (25,000 cells/well) to form monolayers, with media changed every 2–3 days for 21 days until 100% confluency. Permeability studies involved adding 10 μM compound 6 to the apical (A) or basolateral (B) side and measuring permeation across the monolayer. Lucifer yellow dye (100 μM) was used in the A-side buffer as a control. Incubation lasted 1 h, and permeability was assessed using ranitidine/colchicine (low permeability) and labetalol/propranolol (high permeability) as controls. Samples were collected, quenched with methanol, centrifuged, and analyzed by HPLC-MS/MS to determine peak area ratios.
Data was expressed as [drawing 1] here VR is the volume of the receiver chamber. CR,end is the concentration of the test compound in the receiver chamber at the final time point, Δt denotes the incubation time, and A is the surface area of the cell monolayer. CD,mid is the average midpoint concentration of the test compound on the donor side, calculated as the mean of the donor concentrations at 0 min and at the end time point. […] Test compound concentrations were determined based on their peak areas.

[2] = Plasma protein binding, Sprague-Dawley rat; format: in vitro ADME
Description: (§3) The ADMET assessment including the hERG inhibitory activity, plasma protein binding, in vitro metabolic stability profile, CYP inhibitory effect and mutagenic evaluation were conducted by Eurofins Panlabs, Inc.[21],[61],[69]−[71]

[3] = In vitro metabolic stability in human liver microsomes; format: in vitro ADME; conditions: 1.0E-07 M
Description: as §3

[4] = In vitro metabolic stability in Sprague-Dawley rat liver microsomes; format: in vitro ADME; conditions: 1.0E-07 M; for % Compound Remaining, mean: rat liver microsomes
Description: as §3

CYP2C19 = molecular target: T6, CYP2C19 (Homo sapiens, UniProt P33261); assay: Cytochrome P450 inhibition assay, CYP2C19; format: in vitro ADME
T6 construct: Eurofins Panlabs, Inc. (contract laboratory)
Description: as §3

hERG potassium channel = hERG potassium channel (Homo sapiens, UniProt Q12809); assay: hERG inhibitory activity assay (automated patch-clamp, CHO-K1 cells)
Swiss Webster mice = assay: Warm-water tail immersion assay, antagonism of morphine-induced antinociception
[5] = Sprague-Dawley rat liver microsomes
[6] = human, CHO-K1 cells stably expressing hERG

## O=C(N[C@H]1CC[C@@]2(O)[C@H]3Cc4ccc(O)c5c4[C@@]2(CCN3CC2CC2)[C@H]1O5)c1nccs1 [Compound 6, 17-Cyclopropylmethyl-3,14β-dihydroxy-4,5α-epoxy-6α-(2′-thiazolylcarboxamido)-morphinan hydrochloride]
μ opioid receptor (MOR)
  Ki: 0.25 ± 0.03 nM
δ opioid receptor (DOR)
  Ki: 41.1 ± 3.58 nM
δ opioid receptor (DOR); ratio of Ki values
  Selectivity δ/μ: 164
κ opioid receptor (KOR)
  Ki: 1.3 ± 0.12 nM
κ opioid receptor (KOR); ratio of Ki values
  Selectivity κ/μ: 5
KOR
  EC50: 3.83 ± 0.62 nM
KOR; relative to 3 μM U50488H, mean ± SEM, read-out: KOR [35S]GTPγS binding % Emax of U50488H
  Emax: 23.5 ± 2.03%
MOR
  IC50: 5.64 ± 0.24 nM
MOR; compared to full MOR agonist DAMGO
  Agonistic activity in increasing intracellular calcium, in words: no apparent agonism; also recorded: none of them showed any significant agonistic activity
[1]
  Papp A→B at 1 h, 10 μM: 13.1 ×10⁻⁶ cm/s
  Papp B→A at 1 h, 10 μM: 33.2 ×10⁻⁶ cm/s
[2]
  fraction unbound: 0.4
[3]
  half-life at 100 nM: > 1 h
  microsomal CLint at 100 nM: < 38.5 µL/min/mg
[3]; 15 min
  % Compound Remaining, mean: 101%
[3]; 30 min
  % Compound Remaining, mean: 101%
[3]; 45 min
  % Compound Remaining, mean: 103%
[3]; 60 min
  % Compound Remaining, mean: 97%
[4]; [5]
  half-life at 100 nM: > 1 h
  microsomal CLint at 100 nM: < 38.5 µL/min/mg
[4]; 15 min
  % Compound Remaining, mean: 106%
[4]; 30 min
  % Compound Remaining, mean: 115%
[4]; 45 min
  % Compound Remaining, mean: 103%
[4]; 60 min
  % Compound Remaining, mean: 105%
CYP2C19; 1.0E-05 M
  inhibition at 10 µM: 78.4%
CYP2C19; 1.0E-07 M
  inhibition at 100 nM: 13.2%
hERG potassium channel
  IC50: 7400 nM
hERG potassium channel; [6]
  inhibition at 10 nM: 2.6%
  inhibition at 100 nM: 6%
  inhibition at 1 µM: 18.5%
  inhibition at 10 µM: 55.5%
  inhibition at 0.0001 M: 86.8%
Swiss Webster mice; mice, s.c., given 5 min before morphine
  AD50 (95% CL) for counteracting morphine-induced antinociception: 0.043 (0.007–0.25) mg/kg
Swiss Webster mice; single dose of 10 mg/kg s.c. in the presence of morphine (10 mg/kg), n = 6
  Antagonism of morphine's antinociception, in words: significantly antagonized
